{"source": "patent US20160038454A1", "about": "“INTRAVENOUS FORMULATIONS OF […] AS IMMUNOMODULATORS AND […] AGENTS” (priority 2013, published 2016)", "key": {"bleomycin-induced PF": {"test_system": "bleomycin-induced PF", "conditions": "G. Krishna et al., 2001; cited from earlier work"}, "[1]": {"assay": "Conversion to triptolide using human serum", "assay_type": "in vitro ADME", "source_text": "(Xia Zhi Lin and Zhen You Lan, Haematologica, 93:14 (2008))."}, "in vitro": {"assay": "in vitro", "assay_type": "cell-based, human", "conditions": "human; Jurkat cells; test compounds incubated in serum for 24 hrs; read-out: Viability/Cytotoxicity MTT (ED50)", "method": "(§1) Test compounds may be dissolved in DMSO at a concentration of 20 mM. Further dilutions may be done in RPMI1640 medium (GIBCO, Rockville, Md.) supplemented with 10% Fetal Calf Serum (HyClone Laboratories, Logan, Utah).\n(§2) Cytotoxicity of the compounds is determined in a standard MTT assay using Cell Proliferation Kit I (#1 465 007, Roche Diagnostics, Mannheim, Germany). Briefly, human T cell lymphoma (Jurkat) cells (4×10^5 per well) are cultured for 24 h, in 96-well tissue culture plates, in the presence of serial three-fold dilutions of test compounds or medium containing the same concentration of DMSO as in the test samples at each dilution point. The cultures are then supplemented with 10 μl/well MTT reagent for 4 h and then with 0.1 ml/well solubilizing reagent for an additional 16 h. Optical density at 570 nm (OD570) is measured on a ThermoScan microplate reader (Molecular Devices, Menlo Park, Calif.)."}, "[2]": {"test_system": "human T cell lymphoma (Jurkat) cells", "assay": "in vitro", "assay_type": "cell-based", "method": "as §1, §2"}, "[3]": {"test_system": "IL-2 production by Jurkat cells", "assay": "cells", "assay_type": "cell-based, human", "conditions": "for IC50: read-out: Immunosuppression IL-2 (IC50)", "method": "Test samples can be diluted to 1 mM in complete tissue culture medium. Aliquots are placed in microculture plates coated with anti-CD3 antibody (used to stimulate the production of IL-2 by Jurkat cells), and serial dilutions are prepared so that the final concentration encompass the range of 0.001 to 10,000 nM in log increments. Cells from an exponentially expanding culture of Jurkat human T cell line (#TIB-152 obtained from American Type Culture Collection, Manassas, Va.) are harvested, washed once by centrifugation, re-suspended in complete tissue culture medium, and diluted to a concentration of 2×10^6 cells/ml. A volume of 50 μl of Jurkat cells (1×10^5 cells) is added to wells containing 100 μl of the diluted compounds, 50 μl of PMA (10 ng/ml) is added to each well, and the plates are incubated at 37° C. in a 5% CO2 incubator. After 24 hours, the plates are centrifuged to pellet the cells, 150 μl of supernatant is removed from each well, and the samples are stored at −20° C. The stored supernatants are analyzed for human IL-2 concentration using the Luminex 100 (Luminex Corporation, Austin, Tex.), Luminex microspheres coupled with anti-IL-2 capture antibody, and fluorochrome-coupled anti-IL-2 detection antibody. The data are expressed as pg/ml of IL-2."}, "[4]": {"test_system": "IL-2 production by Jurkat cells", "conditions": "cited from earlier work"}, "[5]": {"test_system": "human T cell lymphoma (Jurkat) cells", "conditions": "cited from earlier work"}, "[6]": {"test_system": "primary cultured rat mesencephalic neurons", "conditions": "Li et al., 2003; cited from earlier work"}, "rat model of PD": {"test_system": "rat model of PD", "conditions": "0.5-1 μg/kg; Cheng et al., 2002; cited from earlier work"}, "patients with AML": {"test_system": "patients with AML", "conditions": "given intravenously; Xia Zhi Lin and Zhen You Lan 2008; cited from earlier work"}, "[7]": {"assay": "TK: plasma triptolide levels, Calvert study (emulsion)", "assay_type": "in vivo, rodents", "conditions": "for Plasma Triptolide Concentration: 0.15 mg/kg (emulsion)", "method": "Triptolide prodrugs are generally believed to be safer than triptolide. […] Triptolide prodrugs as an emulsion formulation are believed to have a toxicokinetic profile characterized by a flat AUC with a minimized Cmax. [In conjunction, it was postulated that a sustained inhibition of RNA polymerase is needed for optimum efficacy which in turn requires a pharmcokinetic profile of constant exposure to drug]. […] The no effect dose (“NOAEL”) of PG796(MRx102) again exceeded 1.5 mg/kg/day intravenously for seven days in rodents confirming the initial results. It is interesting to ask why a prodrug of triptolide would be safer than the natural product itself; while not wishing to be bound by theory, perhaps the answer lies in the pharmacokinetic profile of triptolide administered either directly or released from its carrier, PG796(MRx102). […] It also remained above the therapeutic levels (shown as a thick line without symbols). The difference in the Cmax/AUC profile of PG796(MRx102) vs. triptolide is believed to be due to the physiochemical properties of the lipid prodrug/emulsion formulation combination. In general, triptolide prodrugs having a cLogP greater than 0.5 are more lipid-soluble than water soluble and are expected to take longer to convert to the drug form; such characteristics may yield a flatter conversion profile and less of a drug-release Cmax spike.\nTK comparison of triptolide levels in Calvert and SRI studies—Males and Females"}, "[8]": {"target": "T1, human XPB (also known as ERCC3) (Homo sapiens, UniProt P19447)", "T1 sequence (P19447 1-782)": "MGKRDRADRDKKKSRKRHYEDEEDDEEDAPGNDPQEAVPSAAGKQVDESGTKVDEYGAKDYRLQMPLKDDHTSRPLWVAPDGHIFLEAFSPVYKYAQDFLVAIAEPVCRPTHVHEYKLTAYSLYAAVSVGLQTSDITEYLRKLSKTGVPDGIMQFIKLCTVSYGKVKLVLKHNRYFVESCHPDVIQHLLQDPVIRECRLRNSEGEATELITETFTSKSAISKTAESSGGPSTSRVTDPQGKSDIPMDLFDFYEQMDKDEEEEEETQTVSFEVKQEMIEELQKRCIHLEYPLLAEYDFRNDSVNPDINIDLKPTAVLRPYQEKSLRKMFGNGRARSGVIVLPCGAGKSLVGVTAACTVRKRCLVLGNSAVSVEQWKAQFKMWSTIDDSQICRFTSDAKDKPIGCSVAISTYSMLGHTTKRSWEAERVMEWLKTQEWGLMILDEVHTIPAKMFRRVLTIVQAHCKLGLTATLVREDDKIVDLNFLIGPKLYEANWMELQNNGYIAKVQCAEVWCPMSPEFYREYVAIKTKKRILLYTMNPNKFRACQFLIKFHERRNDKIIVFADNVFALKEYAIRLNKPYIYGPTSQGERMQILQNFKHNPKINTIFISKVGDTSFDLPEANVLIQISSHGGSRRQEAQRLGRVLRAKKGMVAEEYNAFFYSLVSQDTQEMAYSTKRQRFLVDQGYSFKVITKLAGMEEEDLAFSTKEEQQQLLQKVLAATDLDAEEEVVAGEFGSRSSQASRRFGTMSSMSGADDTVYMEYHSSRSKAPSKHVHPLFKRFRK", "conditions": "Titov et al. 2011; cited from earlier work"}, "PC12 cells": {"test_system": "PC12 cells", "conditions": "cited from earlier work"}, "[9]": {"test_system": "lipopolysaccharide (LPS)-activated microglial activity", "conditions": "Zhou et al., 2003; cited from earlier work"}, "[10]": {"test_system": "primary mesencephalic neuron/glia mixed culture", "conditions": "Li et al., 2004; cited from earlier work"}, "[11]": {"conditions": "incubated in human serum compared with mouse serum"}, "[12]": {"conditions": "FIG. 1, triptolide provided alone"}}, "note": "Where two headings read alike, the source gives them in different places."}
{"molecule": "14-succinimide ester of triptolide", "values": [{"measurement": "bleomycin-induced PF", "setting": "bleomycin-induced PF", "value": "block bleomycin-induced PF"}]}
{"molecule": "CC(C)[C@]12O[C@H]1[C@@H]1O[C@]13[C@]1(O[C@H]1C[C@H]1C4=C(CC[C@@]13C)C(=O)OC4)[C@@H]2OC(=O)CCC(=O)[O-].[Na+]", "note": "[PG490-88Na]", "values": [{"measurement": "conversion to triptolide in human serum", "setting": "[1]", "value": "incompletely converted"}]}
{"molecule": "CC(C)[C@]12O[C@H]1[C@@H]1O[C@]13[C@@]1(OC(=O)O[C@H]21)[C@H](Cl)C[C@H]1C2=C(CC[C@@]13C)C(=O)OC2", "note": "[PG762]", "values": [{"measurement": "EC50 at 24 h", "setting": "in vitro", "value": 60, "unit": "nM"}, {"measurement": "cytotoxic activity in MTT assay (in words)", "setting": "[2]; Jurkat cells, comparison with triptolide or PG490-88", "value": "comparable potency"}, {"measurement": "IC50", "setting": "[3]; Homo sapiens, Jurkat, 24 h", "value": 9, "unit": "nM"}]}
{"molecule": "CC(C)[C@]12O[C@H]1[C@@H]1O[C@]13[C@]1(O[C@H]1C[C@H]1C4=C(CC[C@@]13C)C(=O)OC4)[C@H]2F", "note": "[PG763, 14-deoxy-14α-fluoro triptolide]", "values": [{"measurement": "inhibition of IL-2 (as reported in U.S. application 60/449,976)", "setting": "[4]", "value": "inhibition of IL-2"}, {"measurement": "cytotoxicity in Jurkat cells (as reported in U.S. application 60/449,976)", "setting": "[5]", "value": "cytotoxicity in human T cell lymphoma (Jurkat) cells"}]}
{"molecule": "CC(C)[C@]1(O)[C@H](Cl)[C@@H]2O[C@]23[C@]2(O[C@H]2C[C@H]2C4=C(CC[C@@]23C)C(=O)OC4)[C@@H]1O", "note": "[Tripchlorolide]", "values": [{"measurement": "protection from neurotoxic lesion induced by 1-methyl-4-phenylpyridinium ion", "setting": "[6]", "value": "protects dopaminergic neurons"}, {"measurement": "recovery of rats undergoing neurosurgery", "setting": "rat model of PD", "value": "improves recovery"}]}
{"molecule": "triptolide 14-succinate [PG490-88]", "values": [{"measurement": "activity in MTT assay after incubation in human serum vs mouse serum", "setting": "[2]; [11]", "value": "much less active"}, {"measurement": "activity in IL-2 inhibition assay after incubation in human serum vs mouse serum", "setting": "[3]; [11]", "value": "much less active"}, {"measurement": "clinical activity in patients with AML", "setting": "patients with AML", "value": "promising activity"}]}
{"molecule": "triptolide [PG490]", "values": [{"measurement": "IC50", "setting": "[3]; Jurkat cells, test compounds incubated in serum for 24 hrs", "value": 4, "unit": "nM"}, {"measurement": "Plasma Triptolide Concentration", "setting": "[7]; females, 0 hrs", "value": 0, "unit": "ng/mL"}, {"measurement": "Plasma Triptolide Concentration", "setting": "[7]; females, 0.25 hrs", "value": 74.6, "unit": "ng/mL"}, {"measurement": "Plasma Triptolide Concentration", "setting": "[7]; females, 0.5 hrs", "value": 18.4, "unit": "ng/mL"}, {"measurement": "Plasma Triptolide Concentration", "setting": "[7]; females, 1 hrs", "value": 13.2, "unit": "ng/mL"}, {"measurement": "Plasma Triptolide Concentration", "setting": "[7]; females, 2 hrs", "value": 0, "unit": "ng/mL"}, {"measurement": "Plasma Triptolide Concentration", "setting": "[7]; females, 24 hrs", "value": 0, "unit": "ng/mL"}, {"measurement": "Plasma Triptolide Concentration", "setting": "[7]; males, 0 hrs", "value": 0, "unit": "ng/mL"}, {"measurement": "Plasma Triptolide Concentration", "setting": "[7]; males, 0.25 hrs", "value": 59.0, "unit": "ng/mL"}, {"measurement": "Plasma Triptolide Concentration", "setting": "[7]; males, 0.5 hrs", "value": 14.9, "unit": "ng/mL"}, {"measurement": "Plasma Triptolide Concentration", "setting": "[7]; males, 1 hrs", "value": 3.6, "unit": "ng/mL"}, {"measurement": "Plasma Triptolide Concentration", "setting": "[7]; males, 2 hrs", "value": 0, "unit": "ng/mL"}, {"measurement": "Plasma Triptolide Concentration", "setting": "[7]; males, 24 hrs", "value": 0, "unit": "ng/mL"}, {"measurement": "triptolide Cmax (in words)", "setting": "[7]; [12]", "value": "very high Cmax"}, {"measurement": "triptolide in circulation by two hours post-dose", "setting": "[7]; [12]", "value": "none remained in circulation"}, {"measurement": "DNA-dependent ATPase activity of XPB", "setting": "[8]", "value": "inhibit"}, {"measurement": "binding to human XPB", "setting": "[8]", "value": "covalently bind"}, {"measurement": "β-amyloid-induced apoptosis", "setting": "PC12 cells", "value": "markedly inhibit"}, {"measurement": "LPS-activated microglial activity (nitrite accumulation, TNF-α and IL-1β release)", "setting": "[9]", "value": "powerful inhibitory influence"}, {"measurement": "LPS-induced decrease in 3H-dopamine uptake and loss of tyrosine hydroxylase-positive neurons", "setting": "[10]", "value": "attenuates"}]}
